Data on eight compounds can be found in US9745255B2, “Meta-substituted biphenyl peripherally restricted FAAH inhibitors” (The Regents of the University of California, priority 2011, dated 2017).

Like-named read-outs stand apart in the source and are kept apart here.

The target in series [1] is T1, FAAH (Mus musculus, UniProt O08914).
T1 sequence (O08914 1-579): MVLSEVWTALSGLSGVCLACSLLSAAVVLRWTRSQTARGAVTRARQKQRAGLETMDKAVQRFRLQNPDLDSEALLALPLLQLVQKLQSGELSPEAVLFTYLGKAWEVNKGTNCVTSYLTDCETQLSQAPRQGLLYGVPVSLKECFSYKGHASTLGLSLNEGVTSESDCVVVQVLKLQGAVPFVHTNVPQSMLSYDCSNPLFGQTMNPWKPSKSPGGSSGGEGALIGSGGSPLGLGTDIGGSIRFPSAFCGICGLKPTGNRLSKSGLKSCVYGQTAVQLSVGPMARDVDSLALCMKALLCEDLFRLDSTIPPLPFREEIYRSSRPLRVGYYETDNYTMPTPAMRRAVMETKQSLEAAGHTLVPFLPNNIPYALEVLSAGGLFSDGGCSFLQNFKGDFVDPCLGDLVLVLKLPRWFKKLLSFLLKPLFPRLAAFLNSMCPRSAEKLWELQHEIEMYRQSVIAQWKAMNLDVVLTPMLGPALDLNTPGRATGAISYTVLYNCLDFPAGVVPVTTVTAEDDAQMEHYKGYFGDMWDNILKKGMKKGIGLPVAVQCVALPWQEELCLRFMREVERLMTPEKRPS
In words: Ex vivo FAAH activity in liver and brain tissue extracts after i.p. administration to mice. Particulars: for inhibition at 1 mg/kg: mouse, ip, Table 1, mice, 1 mg/kg intraperitoneal, killed 2 h after administration, ex vivo. Also noted: from tissue; host or cells: mouse liver and brain, membrane fraction of tissue extracts. The procedure: (§1) Comparison of compounds according to the invention with other peripherally restricted FAAH inhibitors for their ability to inhibit FAAH in the periphery. […] In particular, (1) IC50 values were generated in vitro using a FAAH assay. […] Mice received a 1 mg/kg dose of each compound by the intraperitoneal route, and were killed 2 h after administration. Tissues were collected and FAAH activity was measured ex vivo in tissue extracts (membrane fraction) using the FAAH assay.

Series [2] has as its target T2, FAAH (Rattus norvegicus, UniProt P97612).
T2 construct: Wistar rats were typically used for the FAAH studies; from tissue; host or cells: Wistar rat
T2 sequence (P97612 1-579): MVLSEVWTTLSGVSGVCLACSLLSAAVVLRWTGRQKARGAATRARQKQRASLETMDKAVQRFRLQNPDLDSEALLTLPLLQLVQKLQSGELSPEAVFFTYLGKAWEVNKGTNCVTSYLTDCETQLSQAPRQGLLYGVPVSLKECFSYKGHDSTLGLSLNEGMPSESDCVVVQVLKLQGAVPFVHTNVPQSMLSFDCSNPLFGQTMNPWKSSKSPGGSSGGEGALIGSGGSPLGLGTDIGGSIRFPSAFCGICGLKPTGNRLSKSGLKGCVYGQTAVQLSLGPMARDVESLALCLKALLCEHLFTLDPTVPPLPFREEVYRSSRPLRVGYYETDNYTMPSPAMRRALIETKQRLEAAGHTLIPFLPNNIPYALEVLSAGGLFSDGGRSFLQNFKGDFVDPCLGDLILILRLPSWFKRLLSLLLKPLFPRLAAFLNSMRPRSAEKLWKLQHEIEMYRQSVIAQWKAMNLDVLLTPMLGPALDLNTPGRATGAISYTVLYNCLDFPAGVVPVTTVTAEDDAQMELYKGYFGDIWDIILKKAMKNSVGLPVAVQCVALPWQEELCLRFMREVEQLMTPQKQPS
The experiment in a line: In vitro FAAH assay (IC50, Tables 1 and 2). Format: biochemical. The procedure: Male Swiss Webster and CD1 mice (Charles River, 20-30 g) were used. Mice were group-housed in standard cages at room temperature on a 12:12 h light:dark cycle with unlimited access to water and standard chow pellets. Wistar rats were typically used for the FAAH studies. All experiments met the National Institutes of Health guidelines for the care and use of laboratory animals, were approved by the Institutional Animal Care and Use Committee of the University of California, Irvine, and the University of Georgia, Athens, and were in compliance with the European Community Council Directive 86 (609) EEC and the experimental protocol was carried out in compliance with Italian regulations (DL 116/92).
as §1

A short description of series [3]: Brain entry after systemic administration in mice. Particulars: inferred from Table 3. Type of series: in vivo, mouse. From the text:
The activity of compounds of Formula I as peripherally restricted FAAH inhibitors was found based in part on the polarity of the p-hydroxyphenyl moiety.

The subject of series [4] is rodent models of inflammation and peripheral nerve injury. The experiment in a line: Rodent models of inflammation and peripheral nerve injury (persistent pain). Type of series: in vivo. Particulars: prevented by CB1 receptor blockade. From the text: (§2) Peripheral cannabinoid receptors exert a powerful inhibitory control over pain initiation, but the endogenous cannabinoid signal that normally engages this intrinsic analgesic mechanism is unknown. […] CB1 receptor blockade prevents these effects. […] Accordingly, relatively brain-impermeant FAAH inhibitors, which strengthen this gating mechanism, offer a new approach to pain therapy (see, U.S. Provisional Patent Application Ser. No. 61/368,500, filed on Jul. 28, 2010, which is incorporated herein by reference in its entirety for all purposes, and specifically with respect to methods of assaying FAAH inhibitors for their biological and pharmaceutical properties, and the pharmacological properties of peripherally restricted FAAH inhibitors in general).

Series [5] is described as follows: Transport system mediated extrusion from brain. To be noted: in vivo.
Text: as §2

The target in series [6] is T1, FAAH. In words: FAAH activity and anandamide levels outside the CNS. Further details: suppressed FAAH activity and increased anandamide levels outside the central nervous system (CNS); from tissue; host or cells: peripheral tissues of the dosed animal, not specified. Particulars: in vivo. From the text:
Peripheral cannabinoid receptors exert a powerful inhibitory control over pain initiation, but the endogenous cannabinoid signal that normally engages this intrinsic analgesic mechanism is unknown.

The test system of series [7] is carrageenan-induced hyperalgesia in male CD1 mice. The experiment in a line: Carrageenan-induced thermal hyperalgesia. Format: in vivo, mouse. To be noted: oral administration, p<0.001 vs. vehicle (FIG. 3). The method, then:
(§3) Peripheral inflammation was induced by intraplantar (i.pl.) injection of the polysaccharide λ-carrageenan (i.pl. 1% weight vol^−1 in sterile water, 20 μL) into the left hind paw of male CD1 mice.
(§4) Nocifensive responses were measured elicited by intraplantar injection of carrageenan in male CD1 mice (LoVerme, J., La Rana, G., Russo, R., Calignano, A., & Piomelli, D., The search for the palmitoylethanolamide receptor. Life Sci 77 (14), 1685-1698 (2005)).
(§5) Mechanical hyperalgesia was determined by measuring the latency in seconds to withdraw the paw away from a constant mechanical pressure exerted onto the dorsal surface. […] Withdrawal threshold was measured on the inflamed ipsilateral paw at different time points after oral drug administration. […] Thermal hyperalgesia was assessed as described (Hargreaves, K., Dubner, R., Brown, F., Flores, C., & Joris, J., A new and sensitive method for measuring thermal nociception in cutaneous hyperalgesia. Pain 32 (1), 77-88 (1988)), measuring the latency to withdraw the hindpaw from a focused beam of radiant heat (thermal intensity: infrared 3.0) applied to the plantar surface using a plantar test apparatus (Ugo Basile, Italy). […] Withdrawal latency was measured on the inflamed ipsilateral paw at different time points after oral drug administration. […]

The test system is the same in series [8]. The experiment in a line: Carrageenan-induced mechanical hyperalgesia. Type of series: in vivo, mouse. To be noted: oral administration, p<0.001 vs. vehicle (FIG. 2). The procedure: as §3, §4, §5
Series [9] relates to carrageenan-induced edema in male CD1 mice. In words: Carrageenan-induced paw edema. Format: in vivo, mouse. Particulars: oral administration, 10 and 30 mg/kg, vs. vehicle (FIG. 1). The procedure:
as §3
Paw edema was induced in mice by injection into the right hind paws of 50 μL, of sterile saline containing 1% λ-carrageenan. Paw volumes were measured using a plethysmometer (Ugo Basile, Milan, Italy). […] The increase in paw volume (mL) was evaluated as the difference between the paw volume measured at each time point and the basal paw volume measured immediately before carrageenan injection.
In general terms: The carrageenan paw model is a standard test of acute inflammation.

Where [10] appears, read: brain membrane fraction, read-out: FAAH inhibition in brain.
The mark [11] stands for this setting: liver membrane fraction, read-out: FAAH inhibition in liver.

As to `CNC(=O)c1cccc(-c2cc(O)cc(OC(=O)NC3CCCCC3)c2)c1` [Compound 2, [3-hydroxy-5-[3-(methylcarbamoyl)phenyl]phenyl]N-cyclohexylcarbamate], the figures for the inhibition at 1 mg/kg on FAAH [1] (setting [10]) and on FAAH [1] (setting [11]) were -1.7 ± 0.2% and 69.1 ± 3.5%, respectively. In addition, on FAAH [2] (Table 1, in vitro FAAH assay), half-maximal inhibition (IC50) required 0.3 nM.

With `COc1ccc(OC(=O)NC2CCCCC2)cc1-c1cccc(C(N)=O)c1` [Compound 1c], the “entry into the brain after systemic administration” value (from here on “entry into the brain”) in [3] is on record as “enter the brain”.

Turning to `Cc1ccc(OC(=O)NC2CCCCC2)cc1-c1cccc(C(N)=O)c1` [Compound 1d], the “entry into the brain” value in [3] is “enter the brain”.

On to `NC(=O)c1cccc(-c2cc(OC(=O)NC3CCCCC3)ccc2O)c1` [URB937], for which the “noxious stimulus-evoked neuronal activation in spinal cord regions implicated in nociceptive processing” value in [4] is reported as “suppresses”. In addition, the “behavioral responses indicative of persistent pain” value in [4] (rodent models of inflammation and peripheral nerve injury) was “attenuated”. Moreover, the “susceptibility to transport system mediated extrusion from brain” value in series [5] was “surprisingly susceptible”. At FAAH [6], the “FAAH activity outside the central nervous system (CNS)” value is recorded as “suppressed” and the “anandamide levels outside the central nervous system (CNS)” value was “increased”.

As for `NC(=O)c1cccc(-c2cc(O)cc(OC(=O)NC3CCCCC3)c2)c1` [Compound 1, [3-(3-carbamoylphenyl)-5-hydroxy-phenyl]N-cyclohexylcarbamate], the inhibition (in general, the relative decrease from the control value, in per cent) at 1 mg/kg at FAAH [1] (setting [10]) is -4.2 ± 2.5%; on FAAH [1] (setting [11]) it was 89.5 ± 1.1%. In series [7], the “withdrawal threshold on inflamed ipsilateral paw, thermal hyperalgesia test” value was “increased”. The “withdrawal threshold on inflamed ipsilateral paw, mechanical hyperalgesia test” value in series [8] was “increased”. Also, the “difference between paw volume at each time point and basal paw volume (carrageenan-induced edema)” value in [9] was “reduced”.

With `NC(=O)c1cccc(-c2cc(OC(=O)NC3CCCCC3)ccc2F)c1` [Compound 1e], in series [3], the “entry into the brain” value is recorded as “enter the brain”.

Regarding `NC(=O)c1cccc(-c2cc(OC(=O)NC3CCCCC3)ccc2N)c1` [Compound 1f], the “entry into the brain” value in series [3] is “largely excluded”.

For the compound `NC(=O)c1cccc(-c2cc(OC(=O)NC3CCCCC3)ccc2C(=O)O)c1` [ARN0715], the “FAAH inhibition in brain” value on FAAH [1] (Table 2 (Example 5), brain) is listed as −2.1 ± 0.5%. For the same compound, the “FAAH inhibition in liver” value at FAAH [1] (Table 2 (Example 5), liver) was 86.3 ± 1.3%. It took 2100 nM to reach half-maximal inhibition against FAAH [2] (Table 2 (Example 5)) (IC50).
